From paper PMC12291762 (Antioxidants, 2025) come the findings set out here.

Experiment [1] has as its system systemic oxidative stress parameters. The experiment in a line: Systemic redox state (plasma, erythrocyte lysate) 24 h after carrageenan. It is filed as in vivo, Wistar albino rats. The method, then:
(§1) Following 24 h of carrageenan-induced paw edema inflammation model and intraperitoneal anesthesia induced by ketamine/xylazine (100/10 mg/kg of BW), the animals were sacrificed, while whole-blood samples and edema-affected paw tissues were isolated. After centrifugation of whole blood, plasma and erythrocyte lysate samples were separated for further examination of the applied compounds’ effects on the systemic redox balance state. Pro-oxidative markers including superoxide anion radical (O2∙^−), hydrogen peroxide (H2O2) nitrites (NO2^−), and index of lipid peroxidation measured as thiobarbituric acid (TBA) reactive substances (TBARS) were determined from plasma samples, while the antioxidant capacity, including superoxide dismutase (SOD) and catalase (CAT) activity, as well as the reduced glutathione (GSH) level were examined in erythrocyte lysate samples [46]. […] Edema-affected paw tissue samples were weighed (100 mg) and homogenized (OmniPrep™ multi-sample homogenizer, Omni International, Kennesaw, GA, USA) in 900 µL phosphate buffer on ice (pH = 7.4), and centrifuged at 12,000 rpm for 20 min. These supernatant samples were used for the determination of the aforementioned pro-oxidative and antioxidative parameters levels. All oxidative stress analyses were performed spectrophotometrically using a Shimadzu UV 1800 spectrophotometer (Kyoto, Japan).
(§2) Determination of the O2∙^− level was conducted by adding 950 µL of a Nitro Blue Tetrazolium (NBT) mixture with TRIS buffer in 50 µL of sample, measured at the 550 nm wavelength. The level of H2O2 was determined during the oxidation of phenol red by H2O2, which was catalyzed with horseradish peroxidase and measured at the 610 nm wavelength. Indirect measurement of nitrites was performed by the precipitation of samples with 30% sulfo-salicylic acid, followed by vortexing and centrifugation at 3000 rpm for 15 min. The equal volumes of isolated supernatant and Griess’ reagent (containing 1% sulfanilamide in 5% phosphoric acid/0.1% naphthalene ethylenediamine-dihydrochloride) were incubated for 10 min and measured at the 550 nm wavelength. The TBARS concentration was determined by adding 400 µL of sample to 200 µL of TBA in 0.05 M NaOH, followed by 15 min incubation at 100 °C. Measurement was performed at the 530 nm wavelength.
(§3) The epinephrine method was used for SOD determination. By adding 100 µL of sample, the same volume of epinephrine, and 1000 µL of carbonate buffer, the measurement was performed at the 470 nm wavelength. The determination of CAT activity was based on the preparation of a mixture containing 100 µL of sample, 50 µL of catalase buffer, and 1000 µL of 10 mM H2O2, which was measured at the 230 nm wavelength.

Experiment [2] concerns local oxidative stress parameters. The experiment is described as follows: Local redox state (edema-affected paw tissue homogenate) 24 h after carrageenan. It is filed as in vivo, Wistar albino rats. The settings on record: inflamed paw tissue; for Local nitrites level (reduction, p < 0.05): comparator not given. Here is the method:
as §1, §2, §3

Molecules are shown by their SMILES.

For the compound `C[C@H](C(=O)NCC(=O)O)c1cccc(C(=O)c2ccccc2)c1` [Compound 1, (S)-(2-(3-benzoylphenyl)propanoyl)glycine], the “Systemic SOD activity compared to Dex group” value in experiment [1] (erythrocyte lysate) was “significantly lower activity”. In experiment [1] (plasma), the “Systemic O2∙− level compared to Dex group” value was “significantly higher concentration”; the “Systemic TBARS level compared to Dex group” value was “dexketoprofen injection significantly decreased the TBARS concentration compared to the Sol group, as well as rats treated with compounds 1, 3, and 4”; the “Systemic TBARS level compared to Sol (untreated) rats” value is on record as “significantly reducing”.
As for `C[C@H](NC(=O)[C@@H](C)c1cccc(C(=O)c2ccccc2)c1)C(=O)O` [Compound 2, ((S)-2-(3-benzoylphenyl)propanoyl)-L-alanine], in experiment [1] (erythrocyte lysate), the “Systemic CAT activity compared to Dex group” value is “highest potential to increase CAT activity”, the “Systemic GSH level compared to untreated rats” value is “significantly increased GSH level” and the “Systemic SOD activity compared to Dex group” value is listed as “no statistical differences”. Moreover, in experiment [1] (plasma), the “Systemic O2∙− level compared to Dex group” value is on record as “no significant difference” and the “Systemic O2∙− level compared to untreated (Sol) rats” value is given as “significantly lower”. Moreover, in experiment [2], the “Local SOD activity compared to Dex rats” value is “increase the SOD activity”, the “Local SOD activity compared to untreated (negative control) rats” value is on record as “increase the SOD activity”, the “Local TBARS level compared to Dex group” value is “no statistical differences” and the “Local TBARS level compared to Sol rats” value is reported as “reduce the TBARS level”. In addition, the “Local nitrites level (reduction, p < 0.05)” value in experiment [2] was “markedly reduced”.
Consider `C[C@H](C(=O)N[C@@H](Cc1ccccc1)C(=O)O)c1cccc(C(=O)c2ccccc2)c1` [Compound 3, ((S)-2-(3-benzoylphenyl)propanoyl)-L-phenylalanine], for which the “Systemic SOD activity compared to Dex group” value in experiment [1] (erythrocyte lysate) is “significantly lower activity”. Besides, in experiment [1] (plasma), the “Systemic O2∙− level compared to Dex group” value is “no significant difference”; the “Systemic O2∙− level compared to untreated (Sol) rats” value is “significantly lower”; the “Systemic TBARS level compared to Dex group” value is “dexketoprofen injection significantly decreased the TBARS concentration compared to the Sol group, as well as rats treated with compounds 1, 3, and 4”.
`C[C@H](C(=O)N[C@@H](Cc1c[nH]c2ccccc12)C(=O)O)c1cccc(C(=O)c2ccccc2)c1` [Compound 4, ((S)-2-(3-benzoylphenyl)propanoyl)-L-tryptophan]: in experiment [1] (erythrocyte lysate), the “Systemic CAT activity compared to Dex group” value is “decreased this enzyme activity”, the “Systemic GSH level compared to Dex group” value is on record as “significantly reduced” and the “Systemic SOD activity compared to Dex group” value is reported as “significantly lower activity”. In addition, in experiment [1] (plasma), the “Systemic O2∙− level compared to Dex group” value is “significantly higher concentration”; the “Systemic TBARS level compared to Dex group” value was “dexketoprofen injection significantly decreased the TBARS concentration compared to the Sol group, as well as rats treated with compounds 1, 3, and 4”.
As for `C[C@H](C(=O)NCCCC(=O)O)c1cccc(C(=O)c2ccccc2)c1` [Compound 5, (S)-4-(2-(3-benzoylphenyl)propanamido)butanoic acid], in experiment [1] (erythrocyte lysate), the “Systemic GSH level compared to untreated rats” value is listed as “significantly increased GSH level” and the “Systemic SOD activity compared to Dex group” value is “no statistical differences”. In experiment [1] (plasma), the “Systemic H2O2 level compared to Dex group” value is given as “did not differ significantly”, the “Systemic O2∙− level compared to Dex group” value is listed as “no significant difference”, the “Systemic O2∙− level compared to untreated (Sol) rats” value is listed as “significantly lower” and the “Systemic TBARS level compared to Sol (untreated) rats” value is “significantly reducing”. The “Local nitrites level (reduction, p < 0.05)” value in experiment [2] is on record as “markedly reduced”.
